Test system: HCV 1b genotype
Test: HCV Replicon assay (HCV 16-377-neo replicon cells)
Format: cell-based
Settings: Hepatitis C virus; HCV 1b genotype replicon cells; read-out: EC50 ranges against HCV 1b
Procedure, shortened: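 Inhibition measured in HCV 16-377-neo replicon cells, alongside replicon cells carrying the NS5A Y2065H resistance mutation.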

Structure (SMILES) | EC50
Cc1[nH]c([C@@H]2CCCN2C(=O)[C@@H](c2ccccc2)N(C)C)nc1-c1ccc(-c2ccc(-c3c[nH]c([C@@H]4CCCN4C(=O)[C@@H](c4ccccc4)N(C)C)n3)cc2)cc1 [Example E5, (1R)-2-((2S)-2-(4-(4'-(2-((2S)-1-((2R)-2-(dimethylamino)-2-phenylacetyl)-2-pyrrolidinyl)-1H-imidazol-4-yl)-4-biphenylyl)-5-methyl-1 H-imidazol-2-yl)-1-pyrrolidinyl)-N,N-dimethyl-2-oxo-1-phenylethanamine] | 0.001 to 0.999 nM
COC(=O)N[C@@H](C(=O)N1CCC[C@H]1c1nc(-c2ccc(-c3ccc(-c4nc([C@@H]5CCCN5C(=O)[C@H](NC(=O)OC)c5ccccc5)[nH]c4C)cc3)cc2)c[nH]1)c1ccccc1 [Example E5c, methyl ((1R)-2-((2S)-2-(4-(4'-(2-((2S)-1-((2R)-2-((methoxycarbonyl)amino)-2-phenylacetyl)-2-pyrrolidinyl)-1H-imidazol-4-yl)-4-biphenylyl)-5-methyl-1H-imidazol-2-yl)-1-pyrrolidinyl)-2-oxo-1-phenylethyl)carbam ate] | 0.001 to 0.999 nM
COC(=O)N[C@H](C(=O)N1CCC[C@H]1c1nc(-c2ccc(-c3ccc(-c4[nH]c([C@@H]5CCCN5C(=O)[C@@H](NC(=O)OC)[C@@H](C)OC)nc4C)cc3)cc2)c[nH]1)[C@@H](C)OC [Example E5f, methyl ((1S,2R)-2-methoxy-1-(((2S)-2-(4-(4'-(2-((2S)-1-(N-(methoxycarbonyl)-O-methyl-L-threonyl)-2-pyrrolidinyl)-4-methyl-1H-imidazol-5-yl)-4-biphenylyl)-1H-imidazol-2-yl)-1-pyrrolidinyl)carbonyl)propyl)carbamate] | 0.001 to 0.999 nM
COC(=O)N[C@@H](C)C(=O)N1CCC[C@H]1c1nc(-c2ccc(-c3ccc(-c4[nH]c([C@@H]5CCCN5C(=O)[C@H](C)NC(=O)OC)nc4C)cc3)cc2)c[nH]1 [Example E5d, methyl ((1S)-2-((2S)-2-(4-(4'-(2-((2S)-1-(N-(methoxycarbonyl)-L-alanyl)-2-pyrrolidinyl)-4-methyl-1H-imidazol-5-yl)-4-biphenylyl)-1H-imidazol-2-yl)-1-pyrrolidinyl)-1-methyl-2-oxoethyl)carbamate] | 0.001 to 0.999 nM
CC(=O)N1[C@@H](C)CC[C@H]1c1nc(-c2ccc(-c3ccc(-c4cnc([C@@H]5CC[C@H](C)N5C(C)=O)[nH]4)cc3)cc2)c[nH]1 [Example M162, 2-((2S,5S)-1-acetyl-5-methyl-2-pyrrolidinyl)-4-(4'-(2-((2S,5S)-1-acetyl-5-methyl-2-pyrrolidinyl)-1H-imidazol-5-yl)-4-biphenylyl)-1H-imidazole] | 1 to 99 nM
Cc1nc([C@@H]2CCCN2C(=O)[C@@H](c2ccccc2)N(C)C)[nH]c1-c1ccc(-c2ccc(-c3[nH]c([C@@H]4CCCN4C(=O)[C@@H](c4ccccc4)N(C)C)nc3C)cc2)cc1 [Example E5g, (1R,1'R)-2,2'-(4,4'-biphenyldiylbis((4-methyl-1H-imidazole-5,2-diyl)(2S)-2,1-pyrrolidinediyl))bis (N,N-dimethyl-2-oxo-1-phenylethanamine)] | 0.001 to 0.999 nM
COC(=O)Cc1[nH]c([C@@H]2CCCN2C(=O)[C@@H](NC(=O)OC)C(C)C)nc1-c1ccc(-c2ccc(-c3c[nH]c([C@@H]4CCCN4C(=O)[C@@H](NC(=O)OC)C(C)C)n3)cc2)cc1 [Example J14b.1, methyl (2-((2S)-1-(N-(methoxycarbonyl)-L-valyl)-2-pyrrolidinyl)-4-(4'-(2-((2S)-1-(N-(methoxycarbonyl)-L-valyl)-2-pyrrolidinyl)-1H-imidazol-4-yl)-4-biphenylyl)-1H-imidazol-5-yl)acetate] | 0.001 to 0.999 nM

Source: patent publication EP2242752B1, “[…] IMIDAZOLES AS HEPATITIS C VIRUS INHIBITORS” (Bristol-Myers Squibb Company, priority 2008, dated 2009)
